Laboratory results as given in patent publication US20230172940A1, “METHODS OF EXTENDING LIFESPAN BY ADMINISTERING FERROPTOSIS INHIBITORS” (COLLABORATIVE MEDICINAL DEVELOPMENT, LLC, priority 2020, published 2023).
Counter-ions that a name gives are not always drawn.

Assays:
total glutathione = assay: Quantification of total glutathione; type: in vivo, Caenorhabditis elegans; settings: for glutathione depletion induced by DEM: Day 4 animals; for age-dependent decrease in glutathione: treated from L4, assayed on Day 4 of adult life
Protocol: Measurement of total glutathione was based on established protocols and is based on a kinetic spectrophotometric assay using the reaction between GSH and 5^o5′-dithio-bis (2-nitrobenzoic acid) (DTNB) measured at 412 nm (Caito and Aschner^o 2015; Rahman et al.^o 2006). All reagents were freshly prepared prior to the assay and for each estimate 50 adults were collected in 200 μL of S-basal (Brenner^o 1974) in 1.7 ml microfuge tubes. Animals were washed twice in S-basal^o pelleted via centrifugation and total volume reduced to 20 μL. A 50 μL aliquot of Extraction Buffer was added then the samples were frozen in Liquid N2 and store at −80° C. until required. Extraction buffer consisted of 6 mg/mL 5-sulfosalicylic acid dehydrate^o 0.1% v/v Triton X-100 and Complete^o EDTA-free Proteinase inhibitor cocktail (Roche) in KPE buffer (0.1 M potassium phosphate buffer and 5 mM EDTA at pH 7.5).
Samples were homogenized with a Bioruptor Next Gen (Diagenode) bath sonicator^o set on HIGH and cooled to 4° C.^o using 10 cycles of 10 seconds ON and 10 seconds OFF. Supernatant was collected following a 14K×g spin at 4° C. Assays were performed in 96 well microplates (clear polystyrene^o flat-bottomed^o Greiner bio-one)^o in a total volume of 200 μL per well. To each well was added 50 μL of lysate supernatant^o 50 μL of milli-Q H2O and then 100 μL of GA buffer (NADPH 400 μM^o glutathione reductase 1 U/mL and 0.3 mM DTNB in KPE buffer diluent). Reactions were incubated for 1-2 min at room temperature and then absorbance measured at 412 nm for 10 min with 1 min interval using a Powerwave plate spectrophotometer (BioTek). The rate of change in absorbance per minute is linearly proportional to the total concentration of GSH. Total GSH in the samples was interpolated from using linear regression from a standard curve of known GSH concentrations (0 to 1 μM) run in tandem. In parallel^o the concentration of total protein per sample was also determined by a Bicinchoninic acid (BCA) assay (Pierce) using the manufacturers protocol. Total GSH estimates were then normalized for protein load thous accounting for any size differences between populations. Within experiment results are presented as relative glutathione levels^o where results are normalized to the mean of the starting population.

DAF-16 = DAF-16 localization (reporter strain TJ356); type: in vivo, Caenorhabditis elegans; settings: for DAF-16 nuclear translocation: 250 μM SIH, 200 μM Lip-1
Protocol: Wild type (strain N2)^o the temperature sensitive-sterile strain TJ1060: spe-9(hc88); fer-15(b26) and the DAF-16 reporter strain TJ356: zls356 [Pdaf-16::daf-16a/b::gfp+rol-6(su1006)] were obtained from the Caenorhabditis Genetics Center. The wild type strain was maintained at 20° C. on standard nematode growth media (NGM) and aged at 20° C. or 25° C. as required. TJ1060 was maintained at 16° C. and also aged at 20° C. or 25° C. as required. TJ1060 was predominately used to remove the inconvenience of progeny production and can be regarded as a proxy for wild type.
We considered whether the higher levels of glutathione in animals treated with SIH ( ) could reflect a hormetic response to sublethal oxidative stress, which has been described for SIH at low concentrations (10 μM) combining with the cellular labile iron pool within hepatocellular carcinoma cells in culture. […] To further discount possible off-target stress responses elicited by our interventions, we interrogated DAF-16 localization. Nuclear localization of the DAF-16 transcription factor is known to be an indicator of […], which occurs under stress conditions. […] Taken together, these findings argue against hormesis mediating the benefits of SIH or Lip-1 under these conditions in C. elegans.

E. coli (strain OP50) = assay: Disk diffusion test; type: cell-based, Escherichia coli
Excerpt: C. elegans are bacteriophores and the E. coli (OP50) monoxenic diet can colonize the pharynx and intestine, resulting in death. Consequently, antibiotics are known to extend C. elegans lifespan. In addition, iron chelating compounds, such as EDTA have been reported to have antibiotic properties.

Wild type (N2) = assay: Fertility analysis; type: in vivo, Caenorhabditis elegans; settings: treated from early adulthood/late L4; for Early fertility (first 24 hours): p>0.4
Protocol: Wild type (N2) adults (4-day post egg lay) were transferred to fresh plates for 30 minutes at 20° C. to establish a developmentally synchronous population. Adult nematodes were then removed, and eggs were then transferred to 25° C. As with the survival analyses, after 48 hours at 25° C., when worms were at the late L4/young adult stage individual nematodes were transferred to plates containing vehicle control, 250 μM SIH, or 200 μM Lip-1. After 24 hours, adult worms were transferred to fresh plates and transferred daily until the end of the fertile period. After allowing progeny to develop for 2 days at 20° C., they were then counted to determine daily and total fertility. Early fertility is determined by the number of progeny laid in the first 24-hour period. Differences in fertility (i.e. early and total reproductive output) were assessed using an ordinary one-way analysis of variance (ANOVA), followed by a Tukey's multiple comparison test (as implemented by Prism v7.0a, GraphPad Software).

Structure (SMILES) | depletion of glutathione (total glutathione; 10 mM DEM, 24-hour exposure, 4-day old adult worms) | DAF-16 nuclear localization (DAF-16; 10 mM DEM, positive control) | glutathione depletion induced by DEM (total glutathione) | age-dependent decrease in glutathione (total glutathione) | inhibition of E. coli (strain OP50) growth (E. coli (strain OP50)) | lifetime reproductive output (Wild type (N2)) | Early fertility (first 24 hours) (Wild type (N2)) | DAF-16 nuclear translocation (DAF-16)
CCOC(=O)/C=C\C(=O)OCC [DEM, Diethyl maleate] | ≈ 50% | did induce nuclear localization of DAF-16 |  |  |  |  |  | 
Clc1cccc(CNC2=Nc3ccccc3NC23CCNCC3)c1 [Lip-1, N-[(3-chlorophenyl)methyl]-spiro[piperidine-4,2′(1′H)-quinoxalin]-3′-amine] |  |  | did not prevent the fall in glutathione | did not prevent the fall in glutathione | no evidence for inhibition | small decrease | not altered | Neither 250 μM SIH nor 200 μM Lip-1 induced DAF-16 nuclear translocation
O=C(N/N=C/c1ccccc1O)c1ccncc1 [SIH, Salicylaldehyde isonicotinoyl hydrazone] |  |  | mitigated the glutathione depletion induced by DEM | prevented the age-dependent decrease in glutathione | no evidence for inhibition | no effect | not altered | Neither 250 μM SIH nor 200 μM Lip-1 induced DAF-16 nuclear translocation
